# Reference: ChEMBL document CHEMBL5385891, “Design and discovery of novel dipeptide boronic acid ester proteasome inhibitors, an oral slowly-released prodrug for the treatment of multiple myeloma” (Eur J Med Chem, 2023)
# Experiments:
# RPMI-8226 [1] = experiment: Cytotoxicity against human RPMI-8226 cells assessed as inhibition of cell proliferation incubated for 72 hrs by Cell Titer-Glo luminescence assay; assay type: functional, cell-based; conditions: RPMI-8226, 72 h
# 20S proteasome = experiment: Inhibition of human 20S proteasome chymotrypsin-like activity using Suc-Leu-Leu-Val-Tyr-AMC as fluorogenic peptide pre-incubated for 10 mins with compound followed by substrate addition for 60 mins by spectrofluorimetric analysis; assay type: protein-complex assay
# [2] = Stability of the compound in stimulated […] fluid at pH 1.2 measured after 4 hrs; assay type: ADME; conditions: simulated gi fluid, pH 1.2, 4 h
# [3] = Half life in dog liver microsomes at 1 uM incubated for 2 to 60 mins in presence of NADPH by LC-MS/MS analysis; assay type: ADME, Canis lupus familiaris, Microsome; conditions: time 2-60 min
# [4] = Stability of the compound in stimulated […] fluid at pH 1.2 measured after 2 hrs; assay type: ADME; conditions: simulated gi fluid, pH 1.2, 2 h
# [5] = Stability of the compound in stimulated […] fluid at pH 6.8 measured after 12 hrs; assay type: ADME; conditions: simulated intestinal fluid, read-out: Stability
# [6] = AUC(0-t) in Sprague-Dawley rat at 1.2 mg/kg,IG measured upto 24 hrs by LC-MS/MS analysis; assay type: ADME, organism-based; set-up: dose 1.2 mg/kg, time < 24 hrs, route ig; conditions: in vivo, po
# [7] = Intrinsic clearance in mouse liver microsomes at 1 uM incubated for 2 to 60 mins in presence of NADPH by LC-MS/MS analysis; assay type: ADME, Microsome; conditions: time 2-60 min, read-out: CLH
# [8] = Stability of the compound in stimulated […] fluid at pH 6.8 measured after 8 hrs; assay type: ADME; conditions: simulated intestinal fluid, read-out: Stability
# [9] = Half life in mouse liver microsomes at 1 uM incubated for 2 to 60 mins in presence of NADPH by LC-MS/MS analysis; assay type: ADME, Microsome; conditions: time 2-60 min
# [10] = Stability of the compound in stimulated […] fluid at pH 1.2 measured after 12 hrs; assay type: ADME; conditions: simulated gi fluid, pH 1.2, 12 h
# [11] = Stability of the compound in stimulated […] fluid at pH 6.8 measured after 1 min; assay type: ADME; conditions: simulated intestinal fluid, read-out: Stability
# [12] = Half life in Sprague-Dawley rat at 1.2 mg/kg,IG measured upto 24 hrs by LC-MS/MS analysis; assay type: ADME, organism-based; conditions: in vivo, po
# [13] = Half life in monkey liver microsomes at 1 uM incubated for 2 to 60 mins in presence of NADPH by LC-MS/MS analysis; assay type: ADME, Macaca mulatta, Microsome; conditions: rhesus monkey, time 2-60 min
# [14] = Stability of the compound in stimulated […] fluid at pH 6.8 measured after 4 hrs; assay type: ADME; conditions: simulated intestinal fluid, read-out: Stability
# [15] = Half life in rat liver microsomes at 1 uM incubated for 2 to 60 mins in presence of NADPH by LC-MS/MS analysis; assay type: ADME, Microsome; conditions: time 2-60 min
# [16] = Cmax in Sprague-Dawley rat at 1.2 mg/kg,IG measured upto 24 hrs by LC-MS/MS analysis; assay type: ADME, organism-based; set-up: time < 24 hrs, dose 1.2 mg/kg, route ig; conditions: in vivo, po
# [17] = AUC (0-t) in Sprague-Dawley rat at 0.4 mg/kg,iv measured upto 24 hrs by LC-MS/MS analysis; assay type: ADME, organism-based; set-up: time < 24 hrs, dose 0.4 mg/kg, route iv; conditions: in vivo
# [18] = Intrinsic clearance in human liver microsomes at 1 uM incubated for 2 to 60 mins in presence of NADPH by LC-MS/MS analysis; assay type: ADME, Microsome; conditions: time 2-60 min, read-out: CLH
# [19] = Half life in Sprague-Dawley rat at 0.4 mg/kg,iv measured upto 24 hrs by LC-MS/MS analysis; assay type: ADME, organism-based; conditions: in vivo
# [20] = Stability of the compound in stimulated […] fluid at pH 1.2 measured after 1 min; assay type: ADME; conditions: simulated gi fluid, pH 1.2, 1 min
# [21] = Intrinsic clearance in dog liver microsomes at 1 uM incubated for 2 to 60 mins in presence of NADPH by LC-MS/MS analysis; assay type: ADME, Canis lupus familiaris, Microsome; conditions: time 2-60 min, read-out: CLH
# [22] = Tmax in Sprague-Dawley rat at 1.2 mg/kg,IG measured upto 24 hrs by LC-MS/MS analysis; assay type: ADME, organism-based; conditions: in vivo, po
# [23] = Stability of the compound in stimulated […] fluid at pH 6.8 measured after 2 hrs; assay type: ADME; conditions: simulated intestinal fluid, read-out: Stability
# [24] = Half life in human liver microsomes at 1 uM incubated for 2 to 60 mins in presence of NADPH by LC-MS/MS analysis; assay type: ADME, Microsome; conditions: time 2-60 min
# [25] = Intrinsic clearance in rat liver microsomes at 1 uM incubated for 2 to 60 mins in presence of NADPH by LC-MS/MS analysis; assay type: ADME, Microsome; conditions: time 2-60 min, read-out: CLH
# [26] = Stability of the compound in stimulated […] fluid at pH 1.2 measured after 8 hrs; assay type: ADME; conditions: simulated gi fluid, pH 1.2, 8 h
# [27] = Intrinsic clearance in monkey liver microsomes at 1 uM incubated for 2 to 60 mins in presence of NADPH by LC-MS/MS analysis; assay type: ADME, Macaca mulatta, Microsome; conditions: rhesus monkey, time 2-60 min, read-out: CLH
# [28] = Oral bioavailability in Sprague-Dawley rat at 1.2 mg/kg measured upto 24 hrs by LC-MS/MS analysis; assay type: ADME, organism-based; conditions: in vivo
# [29] = Toxicity in Balb/c mouse xenografted with human RPMI-8226 cells assessed as body weight loss at 6 mg/kg,po administrated biweekly for 21 days; assay type: organism-based; conditions: in vivo, 504 h, time 21 day
# RPMI-8226 [30] = experiment: Antitumor activity against human RPMI-8226 cells xenografted in Balb/c mouse assessed as tumor growth inhibition at po administration biweekly for 21 days; assay type: functional, organism-based; conditions: time 21.0 day
# [31] = Toxicity in Balb/c mouse xenografted with human RPMI-8226 cells assessed as body weight loss at 10 mg/kg,po administrated biweekly for 21 days; assay type: organism-based; conditions: in vivo, 504 h, time 21 day
SMILES,IC50 (RPMI-8226 [1]) [nM],IC50 (20S proteasome) [nM],Stability [2] [%],Stability [4] [%],remaining at 12 h [5] [%],remaining at 8 h [8] [%],Stability [10] [%],remaining at 1 min [11] [%],remaining at 4 h [14] [%],Stability [20] [%],remaining at 2 h [23] [%],Stability [26] [%],further results
CC(C)C[C@H](NC(=O)CNC(=O)c1cc(Cl)ccc1Cl)B1OC2CC3C(=O)NC(=O)C3CC2(C)O1 (stereo partly specified),8.7,9.8,–,–,–,–,–,–,–,–,–,–,–
CC(C)C[C@H](NC(=O)C(NC(=O)c1cc(C(F)(F)F)ccc1C(F)(F)F)C1CC1)B1OC2C3OC(CC3C(=O)O)C2(C)O1 (stereo partly specified),2.9,2.7,57.32,56.83,5.76,3.93,58.73,2.35,2.68,5.35,2.82,58.67,half-life at 1 µM [3]: 84.5 min; AUC(0-t) at 24 h [6]: 126 ng·h/mL; microsomal CLint at 1 µM [7]: 37.8 µL/min/mg; half-life at 1 µM [9]: 36.7 min; half-life [12]: 718 min; half-life at 1 µM [13]: 38.9 min; half-life at 1 µM [15]: 24.9 min; Cmax [16]: 46.5 ng/mL; AUC(0-t) at 24 h [17]: 323 ng·h/mL; microsomal CLint at 1 µM [18]: 20.8 µL/min/mg; half-life [19]: 1450 min; microsomal CLint at 1 µM [21]: 16.4 µL/min/mg; Tmax [22]: 10.2 min; half-life at 1 µM [24]: 66.6 min; microsomal CLint at 1 µM [25]: 55.6 µL/min/mg; microsomal CLint at 1 µM [27]: 35.6 µL/min/mg; bioavailability [28]: 9.8%
CC(C)C[C@H](NC(=O)CNC(=O)c1cc(Cl)ccc1Cl)B(O)O [IXAZOMIB],7.4,–,100,100,100,100,100,12.6,100,100,100,100,Activity [29]: Non-Toxic; Activity (RPMI-8226 [30]): Dose-Dependent Effect; Activity [31]: Non-Toxic
CC(C)C[C@H](NC(=O)CNC(=O)c1cc(Br)ccc1Br)B(O)O,14.7,4,–,–,–,–,–,–,–,–,–,–,–
CC(C)C[C@H](NC(=O)CNC(=O)c1cc(Cl)ccc1Cl)B1OC2(C)CCC(C(=O)O)CC2(C)O1 (stereo partly specified),5.3,9.6,97.62,98.08,78.7,85.7,96.98,90.1,91.5,62.06,83.7,98.81,–
CC(C)C[C@H](NC(=O)CNC(=O)c1cc(C(F)(F)F)ccc1C(F)(F)F)B(O)O,18.4,5.2,–,–,–,–,–,–,–,–,–,–,–
COc1ccc(OC)c(C(=O)NCC(=O)N[C@@H](CC(C)C)B(O)O)c1,57.9,15.8,–,–,–,–,–,–,–,–,–,–,–
CC(C)C[C@H](NC(=O)C(CC1CC1)NC(=O)c1cc(C(F)(F)F)ccc1C(F)(F)F)B(O)O (stereo partly specified),4.9,5,–,–,–,–,–,–,–,–,–,–,–
CC(C)C[C@H](NC(=O)C(NC(=O)c1cc(C(F)(F)F)ccc1C(F)(F)F)C1CCCC1)B1OC2C3OC(CC3C(=O)O)C2(C)O1 (stereo partly specified),13.6,2.4,–,–,–,–,–,–,–,–,–,–,–
CC(C)C[C@H](NC(=O)CNC(=O)c1cc(Cl)ccc1Cl)B1OC2C3OC(CC3C(=O)O)C2(C)O1 (stereo partly specified),5,5.2,61.18,60.84,14.2,12.5,58.21,7.36,12.4,6.7,12.9,58.58,–
CC(C)C[C@H](NC(=O)C(NC(=O)c1cc(C(F)(F)F)ccc1C(F)(F)F)C1CC1)B(O)O (stereo partly specified),6.7,5.6,–,–,–,–,–,–,–,–,–,–,–
